The results in this text go back to patent publication US20210188843A1, “QUINOLINE COMPOUNDS AND THEIR PREPARATION AND USE AS ANTIMALARIAL AGENTS” (The United States of America,as represented by the …, priority 2018, published 2021).

Series [1] has as its system Asexual parasites of P. falciparum strain 3D7. The series can be described thus: In vitro drug activity on asexual parasites (SYBR Green assay). The series is classed as cell-based. The following applies: Plasmodium falciparum, P. falciparum 3D7 asexual stage, 72 h, read-out: Asexual EC50. In a few lines:
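3D7 asexual cultures at 0.5% parasitemia and 2% hematocrit were exposed to drug (DMSO <0.5%) for 72 h under standard culture conditions, in duplicate with no-drug and RBC-only controls. After freeze-thaw lysis, SYBR Green I lysis buffer was added for 30 min at room temperature; fluorescence was read at 490 nm excitation/520 nm emission.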

Series [2] in a line: Microsomal stability (rat). The following applies: rat microsomes. The series is classed as in vitro ADME.
Series [3] is described as follows: Solubility pH 7.4. The series is classed as physicochemical. As to conditions: aqueous buffer.
Series [4] is described as follows: PAMPA permeability. The series is classed as in vitro ADME.
Where [5] appears, read: Table 1, read-out: Microsomal Stability (rat) T1/2.
Setting [6] is: Table 2, read-out: Microsomal Stability (rat) T1/2.
Where [7] appears, read: Table 3, read-out: Microsomal Stability (rat) T1/2.

≈ marks a conversion by molar mass, not a printed value. Like-named read-outs stand apart in the source and are kept apart here. A value given as a limit tells only on which side of the number the result lay.

What is called EC50 is the concentration giving half of the maximal effect. What is called solubility is the dissolved amount per volume that the medium holds. High values mean a readily soluble substance, low ones a poorly soluble substance. As usually defined, the Papp is a coefficient for how fast a substance crosses the barrier. Regarding `COC(=O)/N=c1\n(C)c2cnc3ccc(-c4ccc(Cl)cc4)cc3c2n1-c1cc(C#N)ccc1C` [Compound 87, methyl (E)-(8-(4-chlorophenyl)-1-(5-cyano-2-methylphenyl)-3-methyl-1,3-dihydro-2H-imidazo[4,5-c]quinolin-2-ylidene)carbamate], in series [1] (Table 1), the EC50 stood at 57.5 nM. The half-life in series [2] (setting [5]) was > 30 min. Besides, the solubility in series [3] (Table 1) is < 1 µg/mL. The compound further showed a Papp in series [4] (Table 1) of 95.6 ×10⁻⁶ cm/s.

As for `Cc1ccc(C#N)cc1-n1c(=N)n(C)c2cnc3ccc(-c4ncc(Cl)cn4)cc3c21` [Compound 52, 3-(8-(5-chloropyrimidin-2-yl)-2-imino-3-methyl-2,3-dihydro-1H-imidazo[4,5-c]quinolin-1-yl)-4-methylbenzonitrile], the EC50 in series [1] (Table 1) was found to be 444 nM. In series [2] (setting [5]), the half-life is > 30 min. The solubility in series [3] (Table 1) is > 42 µg/mL. The same compound returned a Papp in series [4] (Table 1) of 1430 ×10⁻⁶ cm/s.

As for `COc1cccc(-c2ccc3ncc4c(c3c2)n(-c2cc(C#N)ccc2C)c(=N)n4C)c1` [Compound 32, 3-(2-imino-8-(3-methoxyphenyl)-3-methyl-2,3-dihydro-H-imidazo[4,5-c]quinolin-1-yl)-4-methylbenzonitrile], the EC50 in series [1] (Table 1) was 420 nM. Moreover, the half-life in series [2] (setting [5]) was > 30 min. For the same compound, in series [3] (Table 1), the solubility was > 42 µg/mL. Further, the Papp in series [4] (Table 1) is 678 ×10⁻⁶ cm/s.

In the case of `CCC(=O)/N=c1/ccc2cnc3ccc(-c4ccc(Cl)cc4)cc3c2n1-c1ccc(C(=O)NC2CC2)cc1`, the EC50 in series [1] (Table 2) is 47.5 nM. Also, the half-life in series [2] (setting [6]) amounted to 4.8 min. Further, in series [3] (Table 2), the solubility is < 1 µg/mL. The compound further had a Papp in series [4] (Table 2) of 445 ×10⁻⁶ cm/s.

With `Cn1c(=N)n(-c2cccc(C#N)c2)c2c3cc(-c4ccc(Cl)cc4)ccc3ncc21` [Compound 11, 3-(8-(4-chlorophenyl)-2-imino-3-methyl-2,3-dihydro-1H-imidazo[4,5-c]quinolin-1-yl)benzonitrile], in series [1] (Table 1), the EC50 worked out at 48.2 nM. In series [2] (setting [5]), the half-life was > 30 min. The compound also gave a solubility in series [3] (Table 1) of 3.1 µg/mL (≈ 7.56 µM). Moreover, the Papp in series [4] (Table 1) came out at 1000 ×10⁻⁶ cm/s.

For `Cn1c(=N)n(-c2ccc(N3CCOCC3)c(C#N)c2)c2c3cc(-c4ccc(Cl)cc4)ccc3ncc21` [Compound 51, 5-(8-(4-chlorophenyl)-2-imino-3-methyl-2,3-dihydro-1H-imidazo[4,5-c]quinolin-1-yl)-2-morpholinobenzonitrile], in series [1] (Table 1), the EC50 came out at 186 nM. Also, in series [2] (setting [5]), the half-life was > 30 min. Moreover, the solubility in series [3] (Table 1) is < 1 µg/mL. The Papp in series [4] (Table 1) turned out to be 81.1 ×10⁻⁶ cm/s.

With `COc1cc(-c2ccc3ncc4c(c3c2)n(-c2cc(C#N)ccc2C)c(=N)n4C)ccc1Cl` [Compound 31, 3-(8-(4-chloro-3-methoxyphenyl)-2-imino-3-methyl-2,3-dihydro-1H-imidazo[4,5-c]quinolin-1-yl)-4-methylbenzonitrile], the EC50 in series [1] (Table 1) was found to be 27.2 nM. For the same compound, the half-life in series [2] (setting [5]) was > 30 min. Moreover, the solubility in series [3] (Table 1) is < 1 µg/mL. For the same compound, the Papp in series [4] (Table 1) was found to be 433 ×10⁻⁶ cm/s.

`Cc1ccc(C#N)cc1-n1/c(=N/C(N)=O)n(C)c2cnc3ccc(-c4ccc(F)cc4)cc3c21` [Compound 55, (E)-1-(1-(5-cyano-2-methylphenyl)-8-(4-fluorophenyl)-3-methyl-1,3-dihydro-2H-imidazo[4,5-c]quinolin-2-ylidene)urea]: in series [1] (Table 1), the EC50 was found to be 95.1 nM. In series [2] (setting [5]), the half-life was > 30 min. For the same compound, in series [3] (Table 1), the solubility was found to be 1.3 µg/mL (≈ 2.89 µM). Moreover, the Papp in series [4] (Table 1) worked out at 466 ×10⁻⁶ cm/s.

Regarding `Cc1ccc(C#N)cc1-n1c(=N)n(C)c2cnc3ccc(-c4ccccc4O)cc3c21` [Compound 86, 3-(8-(2-hydroxyphenyl)-2-imino-3-methyl-2,3-dihydro-1H-imidazo[4,5-c]quinolin-1-yl)-4-methylbenzonitrile], the EC50 in series [1] (Table 1) was found to be 696 nM. In addition, the half-life in series [2] (setting [5]) was > 30 min. Also, in series [3] (Table 1), the solubility was > 40 µg/mL. The compound also displayed a Papp in series [4] (Table 1) of 7.9 ×10⁻⁶ cm/s.

Consider `Cc1ccc(C#N)cc1-n1c(=N)n(C)c2cnc3ccc(C#Cc4ccc(Cl)cc4)cc3c21` [Compound 155, 3-(8-((4-chlorophenyl)ethynyl)-2-imino-3-methyl-2,3-dihydro-1H-imidazo[4,5-c]quinolin-1-yl)-4-methylbenzonitrile], for which, in series [1] (Table 1), the EC50 was found to be 8980 nM. Besides, the half-life in series [2] (setting [5]) is > 30 min. In addition, in series [3] (Table 1), the solubility was < 1 µg/mL. In addition, the Papp in series [4] (Table 1) amounted to 916 ×10⁻⁶ cm/s.

With `CC(=O)N1CCN([C@H]2C[C@H](n3c(=N)n(C)c4cnc5ccc(-c6ccc(Cl)cc6)cc5c43)C2)CC1` [Compound 129, 1-(4-((1r,3r)-3-(8-(4-chlorophenyl)-2-imino-3-methyl-2,3-dihydro-1H-imidazo[4,5-c]quinolin-1-yl)cyclobutyl)piperazin-1-yl)ethan-1-one], the EC50 in series [1] (Table 1) worked out at 12700 nM. Also, the half-life in series [2] (setting [5]) was > 30 min. In series [3] (Table 1), the solubility was > 48 µg/mL. Moreover, in series [4] (Table 1), the Papp came to 4.6 ×10⁻⁶ cm/s.

As to `Cc1ccc(C#N)cc1-n1c(=N)n(C)c2cnc3ccc(-c4ccc(Cl)cc4)cc3c21` [Compound 137, 3-(8-(4-chlorophenyl)-2-imino-3-methyl-2,3-dihydro-1H-imidazo[4,5-c]quinolin-1-yl)-4-methylbenzonitrile], the EC50 in series [1] (Table 1) is 43.1 nM. The half-life in series [2] (setting [5]) is > 30 min. This compound also yielded a solubility in series [3] (Table 1) of 3.6 µg/mL (≈ 8.49 µM). Further, the apparent permeability (Papp) in series [4] (Table 1) stood at 1260 ×10⁻⁶ cm/s.

For the compound `CN(C)CCN1CCN(C(=O)c2ccc(-n3/c(=N\C#N)ccc4cnc5ccc(-c6ccc(Cl)cc6)cc5c43)cc2)CC1`, the EC50 in series [1] (Table 2) amounted to 45.4 nM. For the same compound, the half-life in series [2] (setting [6]) is > 30 min. The same compound yielded a solubility in series [3] (Table 2) of 3.2 µg/mL (≈ 5.42 µM). This compound also had a Papp in series [4] (Table 2) of 8.8 ×10⁻⁶ cm/s.

As to `COc1ccc(-c2ccc3ncc4c(c3c2)n(-c2cncnc2)c(=N)n4C)cn1`, the EC50 in series [1] (Table 3) was found to be 1050 nM. The half-life in series [2] (setting [7]) was > 30 min. This compound displayed a solubility in series [3] (Table 3) of 34.5 µg/mL (≈ 90 µM). Moreover, in series [4] (Table 3), the Papp came to 684 ×10⁻⁶ cm/s.

Consider `Cc1ccc(C#N)cc1-n1c(=N)n(C)c2cnc3ccc(-c4cnn(C)c4)cc3c21` [Compound 136, 3-(2-imino-3-methyl-8-(1-methyl-1H-pyrazol-4-yl)-2,3-dihydro-1H-imidazo[4,5-c]quinolin-1-yl)-4-methylbenzonitrile], for which the EC50 in series [1] (Table 1) worked out at 56.1 nM. In series [2] (setting [5]), the half-life was > 30 min. The solubility in series [3] (Table 1) was determined as 40.4 µg/mL (≈ 103 µM). In series [4] (Table 1), this compound gave a Papp of 89.5 ×10⁻⁶ cm/s.

Turning to `C/N=c1\n(C)c2cnc3ccc(-c4ccc(Cl)cc4)cc3c2n1-c1cc(C#N)ccc1C` [Compound 6, (E)-3-(8-(4-chlorophenyl)-3-methyl-2-(methylimino)-2,3-dihydro-1H-imidazo[4,5-c]quinolin-1-yl)-4-methylbenzonitrile], the EC50 in series [1] (Table 1) was determined as 279 nM. The half-life in series [2] (setting [5]) is > 30 min. The same compound showed a solubility in series [3] (Table 1) of 9.6 µg/mL (≈ 21.9 µM). For the same compound, the Papp in series [4] (Table 1) stood at 921 ×10⁻⁶ cm/s.

In the case of `COc1ccc(-c2ccc3ncc4c(c3c2)n(-c2cc(C#N)ccc2C)c(=N)n4C)cc1OC` [Compound 41, 3-(8-(3,4-dimethoxyphenyl)-2-imino-3-methyl-2,3-dihydro-1H-imidazo[4,5-c]quinolin-1-yl)-4-methylbenzonitrile], the EC50 in series [1] (Table 1) was determined as 46.2 nM. Further, in series [2] (setting [5]), the half-life was > 30 min. Moreover, the solubility in series [3] (Table 1) is > 44 µg/mL. This compound showed a Papp in series [4] (Table 1) of 988 ×10⁻⁶ cm/s.

For the compound `Cc1ccc(-c2ccc3ncc4c(c3c2)n(-c2cncnc2)c(=N)n4C)cn1`, the EC50 in series [1] (Table 3) came to 190 nM. The half-life in series [2] (setting [7]) is > 30 min. For the same compound, the solubility in series [3] (Table 3) was > 54 µg/mL. The compound further yielded a Papp in series [4] (Table 3) of 136 ×10⁻⁶ cm/s.

On to `Cc1ccc(C#N)cc1-n1/c(=N/C(=O)OC(C)(C)C)n(C)c2cnc3ccc(-c4ccc(Cl)cc4)cc3c21` [Compound 88, tert-butyl (E)-(8-(4-chlorophenyl)-1-(5-cyano-2-methylphenyl)-3-methyl-1,3-dihydro-2H-imidazo[4,5-c]quinolin-2-ylidene)carbamate], for which, in series [1] (Table 1), the EC50 stood at 1620 nM. The half-life in series [2] (setting [5]) was > 30 min. Besides, in series [3] (Table 1), the solubility was < 1 µg/mL. For the same compound, the Papp in series [4] (Table 1) was 128 ×10⁻⁶ cm/s.

In the case of `Cc1cc(N2CCC2)c(C#N)cc1-n1c(=N)n(C)c2cnc3ccc(-c4ccc(Cl)cc4)cc3c21` [Compound 110, 2-(azetidin-1-yl)-5-(8-(4-chlorophenyl)-2-imino-3-methyl-2,3-dihydro-1H-imidazo[4,5-c]quinolin-1-yl)-4-methylbenzonitrile], the EC50 in series [1] (Table 1) was 373 nM. Moreover, in series [2] (setting [5]), the half-life is > 30 min. In addition, in series [3] (Table 1), the solubility was < 1 µg/mL. Also, the Papp in series [4] (Table 1) amounted to 176 ×10⁻⁶ cm/s.

Consider `Cc1ccc(C#N)cc1-n1c(=N)n(C)c2cnc3ccc(-c4cccc(Cl)c4)cc3c21` [Compound 33, 3-(8-(3-chlorophenyl)-2-imino-3-methyl-2,3-dihydro-1H-imidazo[4,5-c]quinolin-1-yl)-4-methylbenzonitrile], for which the EC50 in series [1] (Table 1) was 297 nM. Also, the half-life in series [2] (setting [5]) was > 30 min. This compound also returned a solubility in series [3] (Table 1) of 14.5 µg/mL (≈ 34.2 µM). The same compound came in with a Papp in series [4] (Table 1) of 1820 ×10⁻⁶ cm/s.

Turning to `Cc1cc(N2CCCCC2)c(C#N)cc1-n1c(=N)n(C)c2cnc3ccc(-c4ccc(Cl)cc4)cc3c21` [Compound 112, 5-(8-(4-chlorophenyl)-2-imino-3-methyl-2,3-dihydro-1H-imidazo[4,5-c]quinolin-1-yl)-4-methyl-2-(piperidin-1-yl)benzonitrile], the EC50 in series [1] (Table 1) is 1830 nM. In series [2] (setting [5]), the half-life is > 30 min. Also, the solubility in series [3] (Table 1) is < 1 µg/mL. This compound showed a Papp in series [4] (Table 1) of 1280 ×10⁻⁶ cm/s.

Take `Cc1ccc(C#N)cc1-n1c(=N)n(C)c2cnc3ccc(-c4cccc(F)c4)cc3c21` [Compound 34, 3-(8-(3-fluorophenyl)-2-imino-3-methyl-2,3-dihydro-1H-imidazo[4,5-c]quinolin-1-yl)-4-methylbenzonitrile]: the EC50 in series [1] (Table 1) stood at 47.3 nM. Further, the half-life in series [2] (setting [5]) was > 30 min. Also, the solubility in series [3] (Table 1) is > 40 µg/mL. For the same compound, the Papp in series [4] (Table 1) stood at 852 ×10⁻⁶ cm/s.
